Where two headings read alike, the source gives them in different places.
What was measured:
[1] = tested on: MES-induced seizure in mice; assay: Maximal electroshock (MES) induced seizure test; format: in vivo, Male NMRI mice; conditions: for responders at 1 mg/kg / responders at 2 mg/kg / responders at 5 mg/kg / responders at 10 mg/kg / responders at 20 mg/kg / responders at 50 mg/kg / responders at 100 mg/kg: Mus musculus; for responders at 1 mg/kg: dose 1 mg/kg ip; for responders at 2 mg/kg / MES Number of animals protected / Number of tested animals: dose 2 mg/kg ip; for responders at 5 mg/kg: dose 5 mg/kg ip; for responders at 10 mg/kg: dose 10 mg/kg ip; for responders at 20 mg/kg: dose 20 mg/kg ip; for responders at 50 mg/kg: dose 50 mg/kg ip; for responders at 100 mg/kg: dose 100 mg/kg ip; for MES Number of animals protected / Number of tested animals: with flumazenil 1 mg/kg ip 15 min before seizure induction
[2] = tested on: PTZ-induced lethal convulsion in mice; assay: Pentylenetetrazole (PTZ) induced seizure test; format: in vivo, Male NMRI mice; conditions: Mus musculus; for responders at 2 mg/kg: dose 2 mg/kg ip; for responders at 5 mg/kg: dose 5 mg/kg ip; for responders at 10 mg/kg: dose 10 mg/kg ip; for responders at 50 mg/kg: dose 50 mg/kg ip; for responders at 1 mg/kg: dose 1 mg/kg ip
[3] = MES 50 mA, 60 Hz, 0.2 s, read-out: MES Number of animals protected / Number of tested animals (converted)
[4] = 30 min before PTZ 100 mg/kg ip, read-out: PTZ Number of animals protected / Number of tested animals
[5] = PTZ 100 mg/kg ip, read-out: PTZ %Protection
[6] = 30 min before PTZ 100 mg/kg ip, read-out: PTZ Number of animals protected / Number of tested animals (converted)
[7] = MES 50 mA, 60 Hz, 0.2 s, read-out: MES Number of animals protected / Number of tested animals

Structure (SMILES): O=C(CSc1nnc(-c2ccccc2Oc2ccccc2)o1)Nc1ccc([N+](=O)[O-])cc1 [Compound 8L, N-(4-nitrophenyl)-2-((5-(2-phenoxyphenyl)-1,3,4-oxadiazol-2-yl)thio)acetamide]
- responders at 1 mg/kg [1, 3]: 25%
- responders at 1 mg/kg ([1]; read-out: MES %Protection): 25%
- responders at 2 mg/kg [1, 3]: 25%
- responders at 2 mg/kg ([1]; read-out: MES %Protection): 25%
- responders at 5 mg/kg [1, 3]: 75%
- responders at 5 mg/kg ([1]; read-out: MES %Protection): 75%
- responders at 10 mg/kg [1, 3]: 50%
- responders at 10 mg/kg ([1]; read-out: MES %Protection): 50%
- responders at 2 mg/kg [2, 4]: 0%
- responders at 2 mg/kg [2, 5]: 0%
- responders at 5 mg/kg [2, 6]: 25%
- responders at 5 mg/kg [2, 5]: 25%
- responders at 10 mg/kg [2, 6]: 0%
- responders at 10 mg/kg [2, 5]: 0%

Structure (SMILES): O=C(CSc1nnc(-c2ccccc2Oc2ccccc2)o1)Nc1ccccc1 [Compound 8a, 2-((5-(2-phenoxyphenyl)-1,3,4-oxadiazol-2-yl)thio)-N -phenylacetamide]
- responders at 1 mg/kg [1, 3]: 62.5%
- responders at 1 mg/kg ([1]; read-out: MES %Protection): 62.5%
- responders at 2 mg/kg [1, 3]: 50%
- responders at 2 mg/kg ([1]; read-out: MES %Protection): 50%
- responders at 5 mg/kg [1, 3]: 50%
- responders at 5 mg/kg ([1]; read-out: MES %Protection): 50%
- responders at 10 mg/kg [1, 3]: 50%
- responders at 10 mg/kg ([1]; read-out: MES %Protection): 50%
- responders at 20 mg/kg [1, 3]: 50%
- responders at 20 mg/kg ([1]; read-out: MES %Protection): 50%
- responders at 5 mg/kg [2, 6]: 0%
- responders at 5 mg/kg [2, 5]: 0%

Structure (SMILES): Cc1ccc(NC(=O)CSc2nnc(-c3ccccc3Oc3ccccc3)o2)cc1 [Compound 8b, 2-((5-(2-phenoxyphenyl)-1,3,4-oxadiazol-2-yl)thio)-N -(p-tolyl)acetamide]
- responders at 1 mg/kg [1, 3]: 0%
- responders at 1 mg/kg ([1]; read-out: MES %Protection): 0%
- responders at 10 mg/kg [1, 3]: 25%
- responders at 10 mg/kg ([1]; read-out: MES %Protection): 25%
- responders at 50 mg/kg [1, 7]: 40%
- responders at 50 mg/kg ([1]; read-out: MES %Protection): 40%
- responders at 100 mg/kg [1, 3]: 75%
- responders at 100 mg/kg ([1]; read-out: MES %Protection): 75%
- responders at 50 mg/kg [2, 4]: 0%
- responders at 50 mg/kg [2, 5]: 0%

Structure (SMILES): COc1ccc(NC(=O)CSc2nnc(-c3ccccc3Oc3ccccc3)o2)cc1 [Compound 8c, N-(4-methoxyphenyl)-2-((5-(2-phenoxyphenyl)-1,3,4-oxadiazol-2-yl)thio)acetamide]
- responders at 1 mg/kg [1, 3]: 0%
- responders at 1 mg/kg ([1]; read-out: MES %Protection): 0%
- responders at 2 mg/kg [1, 3]: 25%
- responders at 2 mg/kg ([1]; read-out: MES %Protection): 25%
- responders at 5 mg/kg [1, 3]: 25%
- responders at 5 mg/kg ([1]; read-out: MES %Protection): 25%
- responders at 10 mg/kg [1, 3]: 25%
- responders at 10 mg/kg ([1]; read-out: MES %Protection): 25%
- responders at 20 mg/kg [1, 3]: 75%
- responders at 20 mg/kg ([1]; read-out: MES %Protection): 75%
- responders at 2 mg/kg [2, 4]: 0%
- responders at 2 mg/kg [2, 5]: 0%

Structure (SMILES): O=C(CSc1nnc(-c2ccccc2Oc2ccccc2)o1)Nc1ccc(F)cc1 [Compound 8d, N-(4-fluorophenyl)-2-((5-(2-phenoxyphenyl)-1,3,4-oxadiazol-2-yl)thio)acetamide]
- responders at 1 mg/kg [1, 3]: 25%
- responders at 1 mg/kg ([1]; read-out: MES %Protection): 25%
- responders at 2 mg/kg [1, 3]: 50%
- responders at 2 mg/kg ([1]; read-out: MES %Protection): 50%
- responders at 5 mg/kg [1, 3]: 50%
- responders at 5 mg/kg ([1]; read-out: MES %Protection): 50%
- responders at 10 mg/kg [1, 3]: 50%
- responders at 10 mg/kg ([1]; read-out: MES %Protection): 50%
- responders at 20 mg/kg [1, 3]: 25%
- responders at 20 mg/kg ([1]; read-out: MES %Protection): 25%
- responders at 5 mg/kg [2, 6]: 0%
- responders at 5 mg/kg [2, 5]: 0%

Structure (SMILES): O=C(CSc1nnc(-c2ccccc2Oc2ccccc2)o1)Nc1ccc(F)cc1F [Compound 8e, N-(2,4-difluorophenyl)-2-((5-(2-phenoxyphenyl)-1,3,4-oxadiazol-2-yl)thio)acetamide]
- responders at 1 mg/kg [1, 3]: 25%
- responders at 1 mg/kg ([1]; read-out: MES %Protection): 25%
- responders at 5 mg/kg [1, 3]: 25%
- responders at 5 mg/kg ([1]; read-out: MES %Protection): 25%
- responders at 10 mg/kg [1, 3]: 25%
- responders at 10 mg/kg ([1]; read-out: MES %Protection): 25%
- responders at 5 mg/kg [2, 6]: 0%
- responders at 5 mg/kg [2, 5]: 0%

Structure (SMILES): O=C(CSc1nnc(-c2ccccc2Oc2ccccc2)o1)Nc1ccccc1Cl [Compound 8f, N-(2-chlorophenyl)-2-((5-(2-phenoxyphenyl)-1,3,4-oxadiazol-2-yl)thio)acetamide]
- responders at 5 mg/kg [1, 3]: 0%
- responders at 5 mg/kg ([1]; read-out: MES %Protection): 0%
- responders at 10 mg/kg [1, 3]: 25%
- responders at 10 mg/kg ([1]; read-out: MES %Protection): 25%
- responders at 20 mg/kg [1, 3]: 75%
- responders at 20 mg/kg ([1]; read-out: MES %Protection): 75%
- responders at 5 mg/kg [2, 6]: 0%
- responders at 5 mg/kg [2, 5]: 0%

Structure (SMILES): O=C(CSc1nnc(-c2ccccc2Oc2ccccc2)o1)Nc1cccc(Cl)c1 [Compound 8g, N-(3-chlorophenyl)-2-((5-(2-phenoxyphenyl)-1,3,4-oxadiazol-2-yl)thio)acetamide]
- responders at 1 mg/kg [1, 3]: 62.5%
- responders at 1 mg/kg ([1]; read-out: MES %Protection): 62.5%
- responders at 2 mg/kg [1, 3]: 25%
- responders at 2 mg/kg ([1]; read-out: MES %Protection): 25%
- responders at 5 mg/kg [1, 3]: 50%
- responders at 5 mg/kg ([1]; read-out: MES %Protection): 50%
- responders at 10 mg/kg [1, 3]: 75%
- responders at 10 mg/kg ([1]; read-out: MES %Protection): 75%
- responders at 20 mg/kg [1, 3]: 62.5%
- responders at 20 mg/kg ([1]; read-out: MES %Protection): 62.5%
- responders at 5 mg/kg [2, 6]: 0%
- responders at 5 mg/kg [2, 5]: 0%

Structure (SMILES): O=C(CSc1nnc(-c2ccccc2Oc2ccccc2)o1)Nc1cc(Cl)cc(Cl)c1 [Compound 8h, N-(3,5-dichlorophenyl)-2-((5-(2-phenoxyphenyl)-1,3,4-oxadiazol-2-yl)thio)acetamide]
- responders at 1 mg/kg [1, 3]: 0%
- responders at 1 mg/kg ([1]; read-out: MES %Protection): 0%
- responders at 2 mg/kg [1, 3]: 25%
- responders at 2 mg/kg ([1]; read-out: MES %Protection): 25%
- responders at 5 mg/kg [1, 3]: 25%
- responders at 5 mg/kg ([1]; read-out: MES %Protection): 25%
- responders at 10 mg/kg [1, 3]: 25%
- responders at 10 mg/kg ([1]; read-out: MES %Protection): 25%
- responders at 20 mg/kg [1, 3]: 50%
- responders at 20 mg/kg ([1]; read-out: MES %Protection): 50%
- responders at 5 mg/kg [2, 6]: 0%
- responders at 5 mg/kg [2, 5]: 0%

Structure (SMILES): O=C(CSc1nnc(-c2ccccc2Oc2ccccc2)o1)Nc1cccc(Br)c1 [Compound 8i, N-(3-bromophenyl)-2-((5-(2-phenoxyphenyl)-1,3,4-oxadiazol-2-yl)thio)acetamide]
- responders at 1 mg/kg [1, 3]: 0%
- responders at 1 mg/kg ([1]; read-out: MES %Protection): 0%
- responders at 5 mg/kg [1, 3]: 50%
- responders at 5 mg/kg ([1]; read-out: MES %Protection): 50%
- responders at 10 mg/kg [1, 3]: 25%
- responders at 10 mg/kg ([1]; read-out: MES %Protection): 25%
- responders at 20 mg/kg [1, 3]: 50%
- responders at 20 mg/kg ([1]; read-out: MES %Protection): 50%
- responders at 5 mg/kg [2, 6]: 0%
- responders at 5 mg/kg [2, 5]: 0%

Structure (SMILES): O=C(CSc1nnc(-c2ccccc2Oc2ccccc2)o1)Nc1ccc(Br)cc1 [Compound 8j, N-(4-bromophenyl)-2-((5-(2-phenoxyphenyl)-1,3,4-oxadiazol-2-yl)thio)acetamide]
- responders at 1 mg/kg [1, 3]: 25%
- responders at 1 mg/kg ([1]; read-out: MES %Protection): 25%
- responders at 5 mg/kg [1, 3]: 50%
- responders at 5 mg/kg ([1]; read-out: MES %Protection): 50%
- responders at 10 mg/kg [1, 3]: 50%
- responders at 10 mg/kg ([1]; read-out: MES %Protection): 50%
- responders at 5 mg/kg [2, 6]: 0%
- responders at 5 mg/kg [2, 5]: 0%
- responders at 10 mg/kg [2, 6]: 25%
- responders at 10 mg/kg [2, 5]: 25%

Structure (SMILES): O=C(CSc1nnc(-c2ccccc2Oc2ccccc2)o1)Nc1ccccc1[N+](=O)[O-] [Compound 8k, N-(2-nitrophenyl)-2-((5-(2-phenoxyphenyl)-1,3,4-oxadiazol-2-yl)thio)acetamide]
- responders at 2 mg/kg [1, 3]: 75%
- responders at 2 mg/kg ([1]; read-out: MES %Protection): 75%
- responders at 5 mg/kg [1, 3]: 75%
- responders at 5 mg/kg ([1]; read-out: MES %Protection): 75%
- responders at 10 mg/kg [1, 3]: 50%
- responders at 10 mg/kg ([1]; read-out: MES %Protection): 50%
- MES Number of animals protected / Number of tested animals [1]: 0/4
- responders at 2 mg/kg [2, 4]: 0%
- responders at 2 mg/kg [2, 5]: 0%

Structure (SMILES): Cc1c(NC(=O)CSc2nnc(-c3ccccc3Oc3ccccc3)o2)cccc1[N+](=O)[O-] [Compound 8m, N-(2-methyl-3-nitrophenyl)-2-((5-(2-phenoxyphenyl)-1,3,4-oxadiazol-2-yl)thio)acetamide]
- responders at 1 mg/kg [1, 3]: 25%
- responders at 1 mg/kg ([1]; read-out: MES %Protection): 25%
- responders at 2 mg/kg [1, 3]: 50%
- responders at 2 mg/kg ([1]; read-out: MES %Protection): 50%
- responders at 10 mg/kg [1, 3]: 0%
- responders at 10 mg/kg ([1]; read-out: MES %Protection): 0%
- responders at 50 mg/kg [1, 7]: 0%
- responders at 50 mg/kg ([1]; read-out: MES %Protection): 0%
- responders at 1 mg/kg [2, 4]: 0%
- responders at 1 mg/kg [2, 5]: 0%

Structure (SMILES): CN1C(=O)CN=C(c2ccccc2)c2cc(Cl)ccc21 [Diazepam, reference compound]
- MES Number of animals protected / Number of tested animals [1]: 0/6
